This note sets out measurements from PubChem BioAssay (NCI).

SMILES strings stand for the structures.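 How tested: cells in 96-well plates exposed to compound for 48 hours at five concentrations. Here, GI50 denotes the concentration required for 50% inhibition of growth. The concentration for full growth arrest is given as TGI.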 Where only a bound is given, the exact number is not on record here.

Assay in all cases: growth of human tumour cells (NCI), 48 h
The test system of test [1] is A549 NSCLC.
In test [2] the test system is U251 CNS.
In test [3] the test system is LOX IMVI melanoma.
Test [4] has as its system MDA-MB-435.
Test [5] relates to NCI-H460 lung.
In test [6] the test system is A498 renal.
Test [7] relates to SNB-19 CNS.
For test [8], the system named is T-47D breast.
In test [9] the test system is BT-549 breast.
In test [10] the test system is HOP-92 NSCLC.

For `CN1CCc2nc3sc(C(N)=O)c(N)c3c(-c3cccs3)c2C1`, the GI50 in test [1] is 3.37 µM; in [2], 3.18 µM; in [3], 1.27 µM; in test [4] it was 3.13 µM; in test [5] it was 3.71 µM; in [6], 2.58 µM. In addition, the GI50 was 4.34 µM in test [7], 2.81 µM in test [8], 3.26 µM in test [9] and 3.16 µM in test [10]. In addition, the TGI in test [1] is over 100 µM; in test [2], over 100 µM; in test [3], over 100 µM; in test [4], over 100 µM; in test [5], over 100 µM; in test [6], 7.27 µM. Also, the TGI in test [7] is over 100 µM; in test [8] it was over 100 µM; in test [9], 35.5 µM; in test [10] it was 9.16 µM.

On to `CC(=O)O[C@@H]1C[C@@]2(C)[C@@H]3CC=C4[C@@H](C[C@H](O)C(=O)C4(C)C)[C@]3(C)C(=O)C[C@]2(C)[C@H]1[C@@](C)(O)C(=O)/C=C/C(C)(C)OC(C)=O`, for which the TGI was over 48.2 µM in test [1]; 10.5 µM in test [2]; over 33 µM in test [3]; 37.9 µM in test [4]; 16.3 µM in test [5]; 0.0591 µM in [6]. Besides, the TGI in test [7] was 7.38 µM; in test [8] it was over 67.8 µM; in [9], 0.713 µM; in test [10], 6.98 µM.

On to `Fc1ccc(/C=N/n2c(-c3ccc(F)c(Cl)c3)n[nH]c2=S)cc1`, for which the GI50 is 21.4 µM in [1]; 57.7 µM in test [4]; 19.2 µM in test [5]; 13.8 µM in [6]; 22.5 µM in test [7]; 20.7 µM in test [8]. The GI50 in [9] was 78.5 µM; in [10] it was 15.1 µM. The TGI in [1] was 46 µM; in test [4], over 100 µM; in [5] it was 38.3 µM; in test [6], 31 µM; in [7], 44.1 µM; in test [8] it was 40.1 µM. For the same molecule, the TGI in test [9] is over 100 µM; in [10], 34.6 µM.

In the case of `COc1ccc2c(-c3ccnc(Nc4cccc(OC(F)(F)F)c4)n3)cnn2n1`, the GI50 in [1] is 1.82 µM; in test [2] it was 1.08 µM; in [3] it was 1.02 µM; in test [4], 0.144 µM; in test [5] it was 1.06 µM; in test [6] it was 0.999 µM. Besides, the GI50 in [7] was 1.67 µM; in [8], 1.71 µM; in test [9], 1.48 µM; in [10], 0.801 µM. The TGI was 5.42 µM in [1]; 5.18 µM in test [2]; 6.47 µM in [3]; 0.692 µM in [4]; 4.79 µM in test [5]; 10.6 µM in [6]. Besides, the TGI in test [7] is over 23.2 µM; in [8], 6.56 µM; in test [9], over 25 µM; in test [10], 7.11 µM.

Consider `CC1C=CC(OC(=O)C(C)(O)CCC(O)(C(=O)OC2CC(O)C(C(C)C)CC2(C)O)C(C)C)(C(C)C)CC1` (centres undefined), for which the GI50 in test [1] was 0.567 µM; in test [2], 0.582 µM; in [3] it was 0.0734 µM; in test [4] it was 0.521 µM; in test [5], 0.799 µM; in test [6] it was 0.844 µM. Moreover, the GI50 in [7] was 1.19 µM; in test [8] it was 0.292 µM; in test [9], 0.561 µM; in test [10] it was 0.403 µM. Moreover, the TGI in test [1] amounted to 1.39 µM; in test [2], 1.32 µM; in test [3] it was 0.142 µM; in test [4], 1.13 µM; in test [5] it was 1.59 µM; in test [6], 2.03 µM. The TGI in test [7] was 16.2 µM; in test [8], 1.81 µM; in test [9] it was 1.22 µM; in [10], 1.86 µM.

Regarding `Cc1ccc(C2C3Cc4ccccc4C3=NN2c2ccc(S(=O)(=O)/N=c3\scc(-c4ccccc4)n3-c3ccccc3)cc2)cc1` (centres undefined), the GI50 was 19 µM in test [1]; 18.7 µM in test [2]; 17.4 µM in test [3]; 17.6 µM in test [4]; 18.1 µM in [5]; 14.9 µM in [6]. Moreover, the GI50 in test [7] was 64.8 µM; in [8] it was 35.5 µM; in test [9], 18.8 µM; in test [10], 18.8 µM. In addition, the TGI in test [1] worked out at 60.1 µM; in test [2] it was 37.8 µM; in test [3], 31.2 µM; in [4] it was 37.7 µM; in test [5], 45.1 µM; in test [6], 36.1 µM. Also, the TGI is over 100 µM in test [7], over 100 µM in [8], 43.3 µM in [9] and 41.7 µM in test [10].

As for `C=CCc1cc(Nc2c3ccc(Cl)cc3nc3ccc(OC)cc23)cc(CN(CC)CC)c1O`, the GI50 was 3.26 µM in test [1]; 0.802 µM in test [2]; 1.23 µM in test [3]; 2.3 µM in test [4]; 0.525 µM in test [5]; 1.68 µM in test [6]. Moreover, the GI50 was 2.03 µM in test [7], 0.499 µM in test [8], 1.38 µM in test [9] and 1.11 µM in test [10]. Besides, the TGI is 13.9 µM in [1]; 10.8 µM in test [2]; 2.58 µM in test [3]; 11.8 µM in test [4]; 2.69 µM in test [5]; 5.84 µM in test [6]. In addition, the TGI was 21.2 µM in test [7], 4.28 µM in test [8], 8.1 µM in [9] and 4.04 µM in [10].

With `O=C(CN1N=C(c2ccc(F)cc2)CCC1=O)Nc1nc2ccccc2s1`, the GI50 in test [1] was 13.7 µM; in test [2] it was 2.08 µM; in [3], 0.179 µM; in test [4] it was over 73.5 µM; in test [5] it was over 51.5 µM; in test [6], 22.8 µM. Also, the GI50 was over 96.7 µM in [7], over 100 µM in test [8], 4.81 µM in [9] and 1.31 µM in test [10]. Further, the TGI was over 100 µM in test [1]; 4.69 µM in test [2]; 0.344 µM in test [3]; over 100 µM in test [4]; over 100 µM in test [5]; over 100 µM in [6]. The figures for the TGI in test [7], in [8] and in [10] were over 100 µM, over 100 µM and 2.84 µM, respectively.

`C[C@@H]1O[C@@H](O[C@@H]2[C@@H](O)[C@H](OCCc3ccc(O)c(O)c3)O[C@H](CO)[C@H]2OC(=O)/C=C/c2ccc(O)c(O)c2)[C@H](O)[C@H](OC2OC[C@](O)(CO)[C@H]2O)[C@H]1O` (some centres undefined): the GI50 is over 100 µM in test [1]; over 100 µM in test [2]; 19.4 µM in [3]; 17.5 µM in test [4]; over 100 µM in [5]; over 100 µM in [7]. Also, the values for the GI50 in test [8] and in [9] were over 100 µM and 12 µM, respectively. In addition, the TGI was over 100 µM in test [1]; over 100 µM in test [2]; 37 µM in test [3]; 34.6 µM in test [4]; over 100 µM in test [5]; over 100 µM in test [7]. For the same molecule, the TGI in test [8] is over 100 µM; in [9] it was 27.2 µM.

As to `C/C(=N\O)c1cccc(Nc2cc(-n3ccnc3)c3ccccc3n2)c1`, the GI50 in test [2] was 12.4 µM; in test [4] it was 10.9 µM; in test [5], over 100 µM; in test [6], 21.6 µM; in test [7], 17.5 µM; in test [8], 9.32 µM. For the same molecule, the values for the GI50 in [9] and in test [10] were 17 µM and 30.2 µM, respectively. Further, the TGI is 28.7 µM in test [2]; 24.4 µM in [4]; over 100 µM in test [5]; 39.1 µM in test [6]; 43.6 µM in [7]; 35.8 µM in [8]. Further, the TGI turned out to be 35.1 µM in test [9] and 92.1 µM in test [10].

`Cc1ccncc1C(N)=O`: the GI50 in test [1], in [2], in test [3], in [4], in [5] and in test [6] was over 100 µM each time. The GI50 in [7], in test [8] and in [10] was over 100 µM throughout. For the same molecule, the TGI in test [1], in test [2], in test [3], in [4], in test [5] and in [6] was over 100 µM throughout. Moreover, the TGI in test [7], in [8] and in test [10] was over 100 µM throughout.

As to `Fc1cccc(F)c1C(Nc1nncs1)Nc1nncs1`, the TGI in [1], in test [2], in test [4], in test [5], in test [6] and in test [7] was over 100 µM each time. In addition, the TGI in test [8], in [9] and in [10] was over 100 µM throughout.

For `COc1cc(C(=O)Nc2cc(O)c(CC=C(C)C)c(O)c2)cc2c1O[C@]1(C)CC[C@@H](O)C(C)(C)[C@H]1C2`, the GI50 is 1.05 µM in test [1]; 0.0399 µM in [2]; 0.281 µM in test [3]; 0.703 µM in [4]; 0.547 µM in test [5]; 0.147 µM in test [6]. The GI50 in test [7] was 4.64 µM; in [8], 1.12 µM; in [9], 0.153 µM. Also, the TGI amounted to 24.6 µM in [1]; 17.4 µM in [2]; 10.3 µM in test [3]; 41.4 µM in [4]; 19.1 µM in test [5]; 15.7 µM in test [6]. Further, the TGI amounted to 61.6 µM in test [7], 14.3 µM in test [8] and 12.8 µM in test [9].

Regarding `C[CH2][Hg][S]c1ccccc1C(=O)O`, the GI50 in [1] is 1.78 µM; in test [2] it was 1.56 µM; in test [3], 0.488 µM; in [4], 1.4 µM; in test [5] it was 2.64 µM; in [6], 1.64 µM. Besides, the GI50 in [7] was 2.98 µM; in test [8], 0.522 µM; in test [9] it was 1.43 µM. Further, the TGI in test [1] stood at 3.94 µM; in test [2], 3.03 µM; in test [3], 2.16 µM; in test [4], 2.95 µM; in [5], 8.98 µM; in test [6], 4.04 µM. Moreover, the TGI turned out to be 12.3 µM in [7], 2.79 µM in [8] and 2.76 µM in [9].

With `CN=C1OC2(c3ccccc3)C3=C(OC(=NC)N2C)C(=O)OC3(c2ccccc2)N1C` (centres undefined), the TGI in test [1], in test [2], in test [5], in test [6], in test [7] and in test [8] was over 100 µM each time. In addition, the TGI in test [9] was over 100 µM.

For the molecule `O=C(Nc1ccccc1OC(=O)c1ccccc1)c1ccccc1`, the GI50 in [1] was 16.5 µM; in test [2], 6.35 µM; in [3], 3.92 µM; in test [4] it was 24.5 µM; in [5], 3.26 µM; in test [6] it was 12.7 µM. The GI50 was 25.1 µM in [7], 41.9 µM in test [8] and 23.1 µM in [10]. The TGI in [1] was over 100 µM; in test [2], over 100 µM; in test [3] it was over 100 µM; in test [4], over 100 µM; in [5], 15.2 µM; in [6], 60.1 µM. For the same molecule, the TGI in test [7], in test [8] and in test [10] was over 100 µM in each case.

As to `Cc1[nH]nc(-c2ccon2)c1N=O`, the TGI was 57.6 µM in test [1]; 32.8 µM in test [2]; 41 µM in test [4]; over 100 µM in test [5]; over 100 µM in test [6]; 64.8 µM in test [7]. Also, the TGI in test [8] worked out at 60.5 µM; in [9], 38 µM; in test [10], 29 µM.
